The values that follow come from patent US9095537B2, “Therapy of cancer based on targeting adaptive, innate and/or regulatory component of the immune response” (priority 2006, dated 2015).

Read-outs that look alike come from different tables or passages of the source.

For test [1], the system named is TC-1 cells. Type of test: in vivo, C57BL/6 mice. The note with it: for survival percentage: TLR ligand given i.v. with 50 ug CyaA-E7 on day 25, pU and CpGs complexed with DOTAP, survival on day 100; for effect on tumor growth of TLR ligand alone: TLR ligand alone without CyaA-E7, day 25; for tumor growth after CTX alone: CTX 2.5 mg i.p. alone, day 24; for mice that totally eradicated their tumors: low dose CTX (2.5 mg i.p.) day 24, 24 h before 50 ug CyaA-E7; for enhancement of the effect of CyaA-E7 by DOX: DOX day 24, intra-tumorally or intravenously, CyaA-E7 day 25; for increase in tumor regression: TLR ligand given with CyaA-E7 on day 25, versus CyaA-E7 alone. On the procedure:
(§1) Specific pathogen-free 5-week-old female C57BL/6 mice were purchased from Charles River (L'Arbresle, France) and were kept in the Pasteur Institute animal facilities under pathogen-free conditions with water and food ad libitum. C57BL/6-RAG1^−/− mice were obtained from the Jackson Laboratory, USA. Experiments involving animals were conducted according to the institutional guidelines for animal care.
TC-1 cells expressing HPV16-E6 and HPV16-E7 proteins derived from primary mouse lung epithelial cells were obtained from the American Type Culture Collection (LGC Promochem, Molsheim, France) (14). EL4-E7 cells, a mouse lymphoma expressing HPV16-E7 (15). Cells were maintained in RPMI 1640 with GlutaMAX supplemented with 10% heat-inactivated fetal calf serum, 100 units/ml penicillin, 100 μg/ml streptomycin, 0.4 mg/ml geneticin and 5×10^−5 mol/12-mercaptoethanol (Life Technologies, Cergy-Pontoise, France).
(§2) Tumor cells lines (5×10^5 TC-1 cells or 4×10^6 EL4-E7 cells) were inoculated into the shaved left back of C57BL/6 mice in 200 μl volume of PBS. Tumor size, presented as the average of two perpendicular diameters (millimeters), was measured at regular intervals.
CpG ODNs (Type A, CpG 2216: 5′-[…]-3′ (SEQ ID NO: 6); Type B, CpG 1826: 5′-[…]-3′ (SEQ ID NO: 7)) were synthesized by Proligo (Paris, France). Boldface nucleotides correspond to phosphorothioate backbone. Polyuridine (pU) was purchased from Sigma (Steinheim, Germany), R848 from PharmaTech (Shanghai, China) and polyinosinic-polycytidylic acid (PIC) from Invivogen (San Diego, Calif., USA). Thirty μg of CpG ODNs or pU were diluted in 50 μl of Optimen medium (Gibco, Grand Island, N.Y., USA) and mixed with 60 μg of DOTAP (Roche, Mannheim, Germany) diluted in 100 μl of Optimen. The rest of the reagents were diluted in PBS before injection. Cyclophosphamide (CTX) (Sigma, Steinheim, Germany) and doxorubicin (DOX) (Calbiochem, La Jolla, Calif., USA) were diluted respectively in PBS and in sterile water before injection. The different antigenic formulations and adjuvants were injected simultaneously except chemotherapeutic agents that were given 24 h before vaccine. Intravenous administrations were performed by retroorbital injection in a volume of 200 μl, intratumoral administrations were done by injection in a volume of 50 μl and subcutaneous administration were performed in 200 μl.
Tumor growth data were analyzed by non-linear mixed effect models using Monolix software (http://www.math.u-psud.fr/˜lavielle/monolix/). Mean diameters of tumors over time were fitted using the model described in (17) and treatments were compared using the Likelihood Ratio test. Kaplan-Meier plots were used to analyzed survival, and a log rank test was used to examine statistical significance of differences in the survival curves using Prism software (GraphPad Software, Inc. San Diego, USA). Data from in vivo CTL and tetramer staining were compared by ANOVA followed by Dunnett posttest. p values less than 0.05 were considered to be statistically significant.

For test [2], the system named is TC-1 cells. The note with it: CTX 2.5 mg i.p. day 24; log-rank p=0.22 vs PBS. On the procedure:
as §1, §2

The test system of test [3] is T regulatory cells, myeloid suppressor cells, tumor-specific CD8+ T cells and NK cells. As to the kind of experiment: Flow cytometric analysis of immune cells in spleen, draining lymph nodes and tumor after tritherapy. The test is classed as in vivo, C57BL/6 mice. On the procedure:
FIG. 9. Changes in immune cells after tritherapy on day 25. […] Groups of mice were sacrificed before treatment (day 0), 24 hour after CTX alone (day 1) or on days 4, 7 or 11 after tritherapy administration. Spleen, tumor draining lymph nodes and tumor were excised, ground to prepare the cell suspensions, stained and analyzed by flow cytometry. Pooled data of two experiments are shown (n=4-6 mice). Bars represent mean values and the error bars correspond to standard error of the mean. *<0.05**<0.01. A) Percentage of CD4^+ cells that express CD25 and FoxP3. B) Percentage of CD4^+ cells that are CD25^− and FoxP3^+. C) Percentage of CD4^+ cells that express FoxP3. D) Percentage of CD8^+ cells that are tetramer^+ and CD44^+. E) Percentage of CD11c^+ cells. F) Percentage of CD11b^+ cells. G) Percentage of GR1^+ cells. H) Percentage of CD11b^+GR1^+ positive cells.
FIG. 11. Phenotype of myeloid cells induced by tritherapy and by tumor growth. […] Tritherapy treated mice received on day 24, 2.5 mg CTX i.p and 24 h later, 50 μg CyaA-E7 and 30 μg CpG-B/DOTAP. PBS treated mice received 200 μl of PBS on day 25. […] Spleens were excised, ground to prepare the cell suspensions, stained and analyzed by flow cytometry. […]
FACScalibur (Becton Dickinson, Franklin Lakes, N.J., USA) was used for flow cytometry and events were analyzed with CELLQuest software (Becton Dickinson, Franklin Lakes, N.J., USA).

The subject of test [4] is E749-57 peptide-pulsed splenocytes. Nature of the test: In vivo killing assay (in vivo CTL). More on the design: species or system C57BL/6 mice. The note with it: CTX 24 h before CyaA-E7, tumor-bearing mice day 25. On the procedure:
FIG. 8. Analysis of tumor specific immune response in control and tumor-bearing mice after different treatments. […] Twenty-five days later, control and tumor-bearing mice were injected with either 50 μg of control CyaA or of CyaA-E7, with PBS or with 30 μg of CpG-B or pU/DOTAP, 25 μg of PIC, 50 μg of R848, 2.5 mg of CTX (24 h before) or with CTX and CpG-B/DOTAP. Percentage of CD8^+ tetramer^+ cells in control (A) and in tumor-bearing mice (B). At day 7 after treatment, mice were sacrificed and the percentage of tetramer positive cells was analyzed by flow cytometry. In vivo CTL in control (C) and in tumor-bearing mice (D). […] Twenty-four hours later, spleens were removed and single-cell suspensions were analyzed by flow cytometry to determine the ratio of CFSE^high to CFSE^low cells. […] In vivo cytolytic activity was low but detected (E and F).
Naïve spleen cells were pulsed for 30 min with 9 μM E749-57 peptide at 37° C. […] Twenty-four hours later, spleens were removed and single-cells suspensions were analyzed by flow cytometry to determine the ratio of CFSE^high to CFSE^low cells. The percentage of specific lysis was calculated as follow: percent-specific lysis=100−(100×(% CFSE^highimmunized/% CFSE^low immunized)/(% CFSE^high control/% CFSE^low control)).

Take 5′-GGGGGACGATCGTCGGGGGG-3′ [CpG-A]: the survival percentage in the test with TC-1 cells [1] was found to be 58%.
Consider 5′-TCCATGACGTTCCTGACGTT-3′ [CpG-B], for which, in the test with TC-1 cells [1], the “effect on tumor growth of TLR ligand alone” value was “none of these TLR ligands administered alone had any effect on the tumor growth” and the survival percentage turned out to be 50%.
On to `O=P1(N(CCCl)CCCl)NCCCO1` (centres unmarked) [CTX, Cyclophosphamide], for which the “tumor growth delay by CTX alone in RAG1-/- mice” value in the test on TC-1 cells [2] is “not observed”. Further, in test [3] (four days after administration of cyclophosphamide, from around 50%), the “percentage of CD25+FoxP3+/CD4+ in tumor-infiltrated lymphocytes” value was “below 30%”. Moreover, the lymphodepletion result in test [3] (spleen and lymph node, tumor-bearing mice, CTX 2.5 mg i.p. day 24) was “transient lymphodepletion in spleen and lymph node that reverted by day 7”. Besides, the “antitumor efficacy of combined CTX and CyaA-E7 at higher CTX dose” value in the test on TC-1 cells [1] (300 mg/kg versus 100 mg/kg CTX i.p. day 24, CyaA-E7 day 25, log-rank p=0.95) is listed as “not improved”. Also, in the test on TC-1 cells [1], the “tumor growth after CTX alone” value is “significantly delayed tumor growth but this effect was transient and was followed by tumor relapse”; the “mice that totally eradicated their tumors” value was 58%. In the test with TC-1 cells [1] (listed as cyclophosphamide), the “tumor growth after CTX alone” value was “could transiently control tumor growth but was not able to induce the complete eradication” and the “mice that totally eradicated their tumors” value is “around 60%”. In addition, the “tumor growth after CTX plus CyaA-E7” value in the test with TC-1 cells [1] (low dose CTX 24 h before CyaA-E7, day 24/25) is given as “delayed growth of all tumors”. Further, the “immune response induced by CyaA-E7” value in test [4] is reported as “did not enhance the immune response induced by CyaA-E7”.
With `COc1cccc2c1C(=O)c1c(O)c3c(c(O)c1C2=O)C[C@@](O)(C(=O)CO)C[C@@H]3O[C@H]1C[C@H](N)[C@H](O)[C@H](C)O1` [DOX, Doxorubicin], the “enhancement of the effect of CyaA-E7 by DOX” value in the test on TC-1 cells [1] is reported as “did not enhance the effect of CyaA-E7”; in the test with TC-1 cells [1] (listed as doxorubicin), “had no effect”.
Turning to polyinosinic-polycytidylic acid [PIC], in the test with TC-1 cells [1], the “effect on tumor growth of TLR ligand alone” value is on record as “none of these TLR ligands administered alone had any effect on the tumor growth”, the survival percentage is given as 41% and the “increase in tumor regression” value was “significant increase in tumor regression”.
Turning to polyuridine [pU], in the test on TC-1 cells [1], the survival percentage is listed as 41% and the “increase in tumor regression” value is given as “significant increase in tumor regression”.
